Structures can show the parent of a compound that is named as a salt. Where two headings read alike, the source gives them in different places. Where a SMILES comes first, the peptide text is derived from it. [ ]: non-standard residue; d: D form. sY = N[C@@H](Cc1ccc(OS(=O)(=O)O)cc1)C(=O)O; pGlu = O=C1CC[C@@H](C(=O)O)N1
Tests used:
[1] = test system: patients of schizophrenia
Method: (1) Method of application: Caerulein tris-diethylamine salt is dissolved in sterilized physiological saline at a rate of 20 μg/ml (W/V), and intramuscularly injected to each patient once at a dose of 0.3 μg/kg (body weight) or 0.6 μg/kg (body weight).

mice = settings: intravenous, cited from earlier work
rats = settings: intravenous, cited from earlier work

With CSCC[C@H](NC(=O)[C@H](Cc1c[nH]c2ccccc12)NC(=O)CNC(=O)[C@@H](NC(=O)[C@H](Cc1ccc(OS(=O)(=O)O)cc1)NC(=O)[C@H](CC(=O)O)NC(=O)[C@H](CCC(N)=O)NC(=O)[C@@H]1CCC(=O)N1)[C@@H](C)O)C(=O)N[C@@H](CC(=O)O)C(=O)N[C@@H](Cc1ccccc1)C(N)=O [Caerulein tris-diethylamine salt] ([pGlu]QD[sY]TGWMDF-NH2) the Side effect ([1]; individual schizophrenia patient, after i.m. injection) was “No”.
In the case of CSCC[C@H](NC(=O)[C@H](Cc1c[nH]c2ccccc12)NC(=O)CNC(=O)[C@@H](NC(=O)[C@H](Cc1ccc(OS(=O)(=O)O)cc1)NC(=O)[C@H](CC(=O)O)NC(=O)[C@H](CCC(N)=O)NC(=O)[C@@H]1CCC(=O)N1)[C@@H](C)O)C(=O)N[C@@H](CC(=O)O)C(=O)N[C@@H](Cc1ccccc1)C(N)=O [caerulein, 5-oxo-L-prolyl-L-glutaminyl-L-aspartyl-O-sulfo-L-tryosyl-L-threonylglycyl-L-tryptophyl-L-methionyl-L-aspartyl-L-phenylalaninamide] ([pGlu]QD[sY]TGWMDF-NH2), the LD50 (mice; female) is given as 702 mg/kg, the LD50 (mice; male) is given as 647 mg/kg and the mental conditions ([1]; administered to humans) is given as “improves rapidly and markedly the mental conditions”. For the same compound, the LD50 (rats; female) was 571 mg/kg and the LD50 (rats; male) was 714 mg/kg.
